Drawing on US20260184663A1, “INDENE COMPOUNDS, PHARMACEUTICAL COMPOSITIONS THEREOF, AND THEIR THERAPEUTIC APPLICATIONS” (NucMito Pharmaceuticals co. Ltd., priority 2022, published 2026), this text covers inhibition for six compounds.

What all share (format): cell-based
Experiment [1] has as its system A431 (epidermoid carcinoma). Nature of the experiment: Antiproliferative activity (CCK-8 cell viability), A431. The note with it: Homo sapiens, 72 h, read-out: Antiproliferative activity in cancerous cells, A431 (inhibition of cell growth); for inhibition at 3.3 µM: A-431, Compound concentration: 3.3 μM; for inhibition at 10 µM: A-431, Compound concentration: 10 μM; for inhibition at 30 µM: A-431, Compound concentration: 30 μM. Put shortly: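 Cell viability of compound-treated A431 cells was measured with a Cell Counting Kit-8. Each well received 10 μL of CCK-8 after 72 h of compound exposure, followed by 4 h incubation at 37° C. and a 450 nm plate-reader measurement. Percent viability was calculated relative to DMSO controls across replicates.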

Experiment [2] deals with A549 (lung adenocarcinoma). Nature of the experiment: Antiproliferative activity (CCK-8 cell viability), A549. As to conditions: Homo sapiens, 72 h, read-out: Antiproliferative activity in cancerous cells, A549 (inhibition of cell growth); for inhibition at 3.3 µM: Compound concentration: 3.3 μM; for inhibition at 10 µM: Compound concentration: 10 μM; for inhibition at 30 µM: Compound concentration: 30 μM. In short, it runs like this: (§1)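 Cells were seeded at 2,000-5,000/well (HeLa in MEM, HepG2 and SW480 in DMEM, A549 in F-12K, all with 10% FBS) and treated with compound at 3.3, 10 or 30 μM for 72 h at 37° C. CCK-8 was added for 4 h, absorbance was read at 450 nm, and viability was expressed relative to DMSO-treated wells.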

The subject of experiment [3] is B16F10 (malignant melanoma). Put plainly: Antiproliferative activity (CCK-8 cell viability), B16F10. The note with it: Mus musculus, 72 h, read-out: Antiproliferative activity in cancerous cells, B16F10 (inhibition of cell growth); for inhibition at 3.3 µM: B16-F10, Compound concentration: 3.3 μM; for inhibition at 10 µM: B16-F10, Compound concentration: 10 μM; for inhibition at 30 µM: B16-F10, Compound concentration: 30 μM. In short, it runs like this: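 Attached B16F10 cells in 96-well plates were incubated with compound at 37° C for 72 h, followed by 10 μL CCK-8 reagent per well and a further 4 h incubation. A multi-well plate reader measured absorbance at 450 nm. Percent viability across replicates was calculated against DMSO vehicle-treated cells.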

The next experiment concerns HeLa (cervical cancer). Nature of the experiment: Antiproliferative activity (CCK-8 cell viability), HeLa. As to conditions: Homo sapiens, 72 h, read-out: Antiproliferative activity in cancerous cells, HELA (inhibition of cell growth); for inhibition at 3.3 µM: Compound concentration: 3.3 μM; for inhibition at 10 µM: Compound concentration: 10 μM; for inhibition at 30 µM: Compound concentration: 30 μM. Put shortly: as §1

In a further experiment the test system is SW480 (colon cancer). Put plainly: Antiproliferative activity (CCK-8 cell viability), SW480. As to conditions: Homo sapiens, 72 h, read-out: Antiproliferative activity in cancerous cells, SW480 (inhibition of cell growth); for inhibition at 3.3 µM: Compound concentration: 3.3 μM; for inhibition at 10 µM: Compound concentration: 10 μM; for inhibition at 30 µM: Compound concentration: 30 μM. Put shortly:
as §1

The test system of a further experiment is HepG2 (liver cancer). Nature of the experiment: Antiproliferative activity (CCK-8 cell viability), HepG2. The note with it: Homo sapiens, 72 h, read-out: Antiproliferative activity in cancerous cells, HepG2 (inhibition of cell growth); for inhibition at 3.3 µM: Compound concentration: 3.3 μM; for inhibition at 10 µM: Compound concentration: 10 μM; for inhibition at 30 µM: Compound concentration: 30 μM. In short, it runs like this: as §1

The subject of experiment [4] is MDA-MB-231 (breast cancer). Nature of the experiment: Antiproliferative activity (CCK-8 cell viability), MDA-MB-231. As to conditions: Homo sapiens, 72 h, read-out: Antiproliferative activity in cancerous cells, MDA-MB-231 (inhibition of cell growth); for inhibition at 3.3 µM: Compound concentration: 3.3 μM; for inhibition at 10 µM: Compound concentration: 10 μM; for inhibition at 30 µM: Compound concentration: 30 μM. Put shortly: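 In this CCK-8 viability assay, MDA-MB-231 cells maintained in Dulbecco's modified Eagle's medium containing 10% fetal bovine serum were placed in 96-well plates (2,000-5,000 cells/well) and treated with compound for 72 h at 37° C. A 4 h incubation with 10 μL CCK-8 followed, plates were read at 450 nm, and viability was expressed against DMSO vehicle wells across replicates.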

Consider `CCc1ccc(Oc2ccc(/C=C3\C(C)=C(CC(=O)O)c4cc(Cl)ccc43)cc2)cc1` [E31, (E)-2-(5-Chloro-1-(4-(4-ethylphenoxy)benzylidene)-2-methyl-1H-inden-3-yl)acetic acid], for which the inhibition at 3.3 µM is at least 50% in experiment [1]; at least 50% in experiment [2]; 30 to 50% in experiment [3]; at least 50% with HeLa (cervical cancer); 30 to 50% in the experiment on SW480 (colon cancer); under 30% in the experiment on HepG2 (liver cancer). Besides, the inhibition at 3.3 µM in experiment [4] is at least 50%. The inhibition at 10 µM in experiment [1] is at least 50%; in experiment [2] it was at least 50%; in experiment [3], at least 50%; with HeLa (cervical cancer) it was at least 50%; with SW480 (colon cancer), 30 to 50%; in the experiment on HepG2 (liver cancer) it was at least 50%. Besides, the inhibition at 10 µM in experiment [4] was at least 50%. The inhibition at 30 µM (in experiment [1]; in experiment [2]; in experiment [3]; in the experiment with HeLa (cervical cancer); with SW480 (colon cancer); with HepG2 (liver cancer)) was at least 50% throughout. Moreover, the inhibition at 30 µM in experiment [4] is at least 50%.
For `CC1=C(CC(=O)O)c2cc(F)ccc2/C1=C\c1ccc(CCOc2ccc(Cl)cc2)cc1` [B34, (Z)-2-(1-(4-(2-(4-Chlorophenoxy)ethyl)benzylidene)-5-fluoro-2-methyl-1H-inden-3-yl)acetic acid], the inhibition at 3.3 µM is at least 50% in experiment [1]; 30 to 50% in experiment [2]; 30 to 50% in experiment [3]; under 30% with HeLa (cervical cancer); under 30% with SW480 (colon cancer); under 30% with HepG2 (liver cancer). The inhibition at 3.3 µM in experiment [4] is under 30%. In addition, the inhibition at 10 µM (in experiment [1]; in experiment [2]; in experiment [3]; with HeLa (cervical cancer); with SW480 (colon cancer); in the experiment with HepG2 (liver cancer)) was at least 50% in each case. Besides, the inhibition at 10 µM in experiment [4] is under 30%.
For the compound `CC1=C(CC(=O)O)c2cc(F)ccc2/C1=C\c1ccc(Oc2ccc(F)c(Br)c2)cc1` [C53, (Z)-2-(1-(4-(3-Bromo-4-fluorophenoxy)benzylidene)-5-fluoro-2-methyl-1H-inden-3-yl)acetic acid], the inhibition at 3.3 µM in experiment [1] is at least 50%; in experiment [2], under 30%; in experiment [3], under 30%; in the experiment with HeLa (cervical cancer), under 30%; in the experiment on SW480 (colon cancer), under 30%; in the experiment on HepG2 (liver cancer) it was under 30%. In experiment [4], the inhibition at 3.3 µM is at least 50%. Besides, the inhibition at 10 µM in experiment [1] is at least 50%; in experiment [2], 30 to 50%; in experiment [3], at least 50%; with HeLa (cervical cancer), at least 50%; in the experiment on SW480 (colon cancer), at least 50%; in the experiment on HepG2 (liver cancer) it was at least 50%. The inhibition at 10 µM in experiment [4] was at least 50%.
Take `CCc1ccc2c(c1)C(CC(=O)O)=C(C)/C2=C/c1ccc(COCc2ccc(Cl)cc2)cc1` [B122, (Z)-2-(1-(4-(((4-Chlorobenzyl)oxy)methyl)benzylidene)-5-ethyl-2-methyl-1H-inden-3-yl)acetic acid]: the inhibition at 3.3 µM is at least 50% in experiment [1]; 30 to 50% in experiment [2]; 30 to 50% in experiment [3]; under 30% in the experiment on HeLa (cervical cancer); 30 to 50% in the experiment with SW480 (colon cancer); at least 50% in the experiment with HepG2 (liver cancer). Further, the inhibition at 3.3 µM in experiment [4] was under 30%. For the same compound, the inhibition at 10 µM (in experiment [1]; in experiment [2]; in experiment [3]; in the experiment with HeLa (cervical cancer); in the experiment on SW480 (colon cancer); in the experiment on HepG2 (liver cancer)) was at least 50% in each case. Besides, the inhibition at 10 µM in experiment [4] was at least 50%.
As to `CC1=C(CC(=O)O)c2cc(F)ccc2/C1=C\c1cccc(C(=O)c2ccccc2)c1` [C304, (Z)-2-(1-(3-Benzoylbenzylidene)-5-fluoro-2-methyl-1H-inden-3-yl)acetic acid], the inhibition at 3.3 µM was under 30% in experiment [1]; under 30% in experiment [2]; under 30% in experiment [3]; 30 to 50% in the experiment with HeLa (cervical cancer); under 30% in the experiment with SW480 (colon cancer); 30 to 50% in the experiment with HepG2 (liver cancer). Also, the inhibition at 3.3 µM in experiment [4] is under 30%. In addition, the inhibition at 10 µM in experiment [1] is 30 to 50%; in experiment [2], at least 50%; in experiment [3], at least 50%; with HeLa (cervical cancer) it was at least 50%; with SW480 (colon cancer) it was at least 50%; in the experiment with HepG2 (liver cancer) it was at least 50%. The inhibition at 10 µM in experiment [4] lay within 30 to 50%. The inhibition at 30 µM (in experiment [1]; in experiment [2]; in experiment [3]; in the experiment on HeLa (cervical cancer); in the experiment with SW480 (colon cancer); in the experiment on HepG2 (liver cancer)) was at least 50% throughout. For the same compound, the inhibition at 30 µM in experiment [4] is at least 50%.
Consider `CC1=C(CC(=O)O)c2cc(Cl)ccc2/C1=C/c1ccc(Oc2ccc(C(C)C)cc2)cc1` [E30, (E)-2-(5-Chloro-1-(4-(4-isopropylphenoxy)benzylidene)-2-methyl-1H-inden-3-yl)acetic acid], for which the inhibition at 3.3 µM was under 30% in experiment [1]; under 30% in experiment [2]; at least 50% in experiment [3]; at least 50% with HeLa (cervical cancer); at least 50% in the experiment on SW480 (colon cancer); 30 to 50% in the experiment on HepG2 (liver cancer). For the same compound, the inhibition at 3.3 µM in experiment [4] was at least 50%. Further, the inhibition at 10 µM (in experiment [1]; in experiment [2]; in experiment [3]; with HeLa (cervical cancer); with SW480 (colon cancer); with HepG2 (liver cancer)) was at least 50% throughout. For the same compound, the inhibition at 10 µM in experiment [4] was at least 50%. In addition, the inhibition at 30 µM (in experiment [1]; in experiment [2]; in experiment [3]; in the experiment with HeLa (cervical cancer); in the experiment on SW480 (colon cancer); in the experiment on HepG2 (liver cancer)) was at least 50% in each case. Also, in experiment [4], the inhibition at 30 µM was at least 50%.
